US6369225B1, “Compounds having activity as inhibitors of cytochrome P450RAI” (Allergan Sales, Inc., priority 2000, dated 2002)

Experiments:
[1] = biological target: T1, P450RAI-1 (Homo sapiens, UniProt O43174); test: P450RAI-1 cell-based inhibitor assay; settings: P450RAI-1 stably transfected HeLa cells, [3H]-RA metabolism, 3 hours at 37° C.; read-out: P450RAI INHIBITION DATA INTACT HELA IC50
T1 construct: expressed in transfected cells; host or cells: HeLa cells, stably transfected, hygromycin selection
T1 sequence (O43174 1-497): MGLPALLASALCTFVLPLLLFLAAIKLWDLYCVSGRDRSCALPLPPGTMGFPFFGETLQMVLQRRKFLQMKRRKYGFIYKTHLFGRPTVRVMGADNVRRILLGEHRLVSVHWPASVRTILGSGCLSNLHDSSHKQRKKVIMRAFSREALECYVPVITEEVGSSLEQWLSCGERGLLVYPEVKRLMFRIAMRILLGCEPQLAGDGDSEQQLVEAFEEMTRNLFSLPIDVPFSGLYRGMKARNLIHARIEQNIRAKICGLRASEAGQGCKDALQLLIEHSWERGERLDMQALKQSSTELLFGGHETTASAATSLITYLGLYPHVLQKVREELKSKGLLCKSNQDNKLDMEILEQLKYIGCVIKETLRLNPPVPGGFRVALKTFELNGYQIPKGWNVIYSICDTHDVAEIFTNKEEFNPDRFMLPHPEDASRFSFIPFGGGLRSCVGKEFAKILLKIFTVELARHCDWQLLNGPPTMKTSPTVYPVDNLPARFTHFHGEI
Description: P450RAI-1 stably transfected HeLa cells are maintained in […] tissue culture dishes in Modified Eagle's Medium (MEM) containing 10% Fetal Bovine Serum (FBS) and 100 μg/ml hygromycin. Exponentially growing cells are harvested by incubating in trypsin. Cells are then washed with 1× Phosphate Buffered Saline (PBS) and plated in a 48-well plate at 5×10^5 cells in 0.2 ml MEM medium containing 10% FBS and 0.05 μCi[^3H]-RA in the presence or absence of increasing concentrations of the test compounds. The compounds are diluted in 100% DMSO and then added in triplicate wells at either 10, 1 or 0.1 μM final concentration. As a positive control for RA metabolism inhibition, cells are also incubated with ketoconazole at 100, 10 and 1 μM. Cell are incubated for 3 hours at 37° C. […] The water soluble radioactivity is quantified using a β-scintillation counter. IC50 values represent the concentration of inhibitor required to inhibit all-trans-RA metabolism by 50 percent and are derived manually from log-transformed data.

[2] = system: skin of hairless mice; test: topical skin irritation test in hairless mice; format: in vivo, mouse; settings: topical in acetone, once daily days 1 through 5, mean ±SD, range 0-21
Description: Mice were housed individually throughout the dosing period.
Doses are disclosed as nmol/25 g.
The grading scale used is as follows:
Values can range from 0-9.
Values can range from 0-8.

SMILES | IC50 [1] | Cutaneous Toxicity Score (Blackjack Score) ([2]; 100 nmole (nmol/25 g)) | Cutaneous Toxicity Score (Blackjack Score) ([2]; 300 nmole (nmol/25 g)) | Cutaneous Toxicity Score (Blackjack Score) ([2]; 1000 nmole (nmol/25 g))
CC1(C)CC2(CC2)Oc2c(C3CC3)cc(C#Cc3ccc(CC(=O)O)c(F)c3)cc21 [Compound 50, 4-[(8-Cyclopropyl-3,4-dihydro-4,4-dimethylspiro[2H-1-benzopyran-2,1′-cyclopropane]-6-yl)ethynyl]-2-fluoro-benzeneacetic Acid] | 14 nM | 1 ± 0 | 3 ± 2 | 8 ± 2
CN(C1CC1)C1CCC(C)(C)c2cc(C#Cc3ccc(CC(=O)O)c(F)c3)ccc21 (centres unmarked) [Compound 18, [4-(5-(Cyclopropyl-methyl-amino)-8,8-dimethyl-5,6,7,8-tetrahydro-naphthalene-2-yl-ethynyl)-2-fluoro-phenyl]-acetic Acid] | 1100 nM | 0 ± 0 | 5 ± 2 | 10 ± 2
CC1(C)CCC(n2ccnc2)c2ccc(C#Cc3ccc(CC(=O)O)cc3)cc21 (centres unmarked) [Compound 137, [4-(5-Imidazol-1-yl-8,8-dimethyl-5,6,7,8-tetrahydro-naphthalen-2-yl-ethynyl)-phenyl]-acetic Acid] | 100 nM | 1 ± 1 | 1 ± 1 | 5 ± 2
CC1(C)CN(C2CC2)Cc2ccc(C#Cc3ccc(CC(=O)O)c(F)c3)cc21 [Compound 22, [4-(2-Cyclopropyl-4,4-dimethyl-1,2,3,4-tetrahydro-isoquinoline-6-yl-ethynyl)-2-fluoro-phenyl]-acetic Acid] | 1600 nM | 0 ± 0 | 0 ± 0 | 1 ± 1
CC1(C)CC2(CC2)Oc2c(C3CC3)cc(C#Cc3ccc(CC(=O)O)cc3)cc21 [Compound 48, Benzeneacetic Acid, 4-[(8-cyclopropyl-3,4-dihydro-4,4-dimethylspiro[2H-1-benzopyran-2,1′-cyclopropane]-6-yl)ethynyl]-] | 30 nM | 1 ± 1 | 3 ± 1 | 7 ± 2
